Test results: patent US12642793B2, “Compositions and methods to treat gastrointestinal diseases and disorders” (CEDARS-SINAI MEDICAL CENTER, priority 2019, dated 2026)

Key:
[1] = tested on: Gram-negative bacteria in patient duodenum aspirate; assay: Culture of patient duodenum aspirate on MacConkey agar aerobically; assay type: cell-based; settings: for MacConkey agar (CFU/mL), Before Rifaximin: With DTT; for MacConkey agar (CFU/mL), Rifaximin treatment: aerobically
Description: (§1) Culture: blood agar and MacConkey aerobically, and blood agar anaerobically. […] Culture: MacConkey aerobically and blood agar anaerobically. […] Culture: MacConkey aerobically and blood agar anaerobically. […] Culture: MacConkey aerobically and blood agar anaerobically. […]

[2] = tested on: anaerobes in patient duodenum aspirate; assay: Culture of patient duodenum aspirate on blood agar; assay type: cell-based; settings: for Blood agar (CFU/mL), Before Rifaximin: With DTT
Description: as §1

[3] = Experiment 1, rifaximin dose 0.01 g/mL

Row | SMILES | MacConkey agar (CFU/mL), Before Rifaximin ([1]; Experiment 1) [CFU/mL] | MacConkey agar (CFU/mL), Before Rifaximin ([1]; Experiment 2) [CFU/mL] | MacConkey agar (CFU/mL), Before Rifaximin ([1]; Experiment 3) [CFU/mL] | MacConkey agar (CFU/mL), Before Rifaximin ([1]; Experiment 4) [CFU/mL] | Blood agar (CFU/mL), Before Rifaximin ([2]; Experiment 1) [CFU/mL] | Blood agar (CFU/mL), Before Rifaximin ([2]; Experiment 2) | Blood agar (CFU/mL), Before Rifaximin ([2]; Experiment 3) [CFU/mL] | Blood agar (CFU/mL), Before Rifaximin ([2]; Experiment 4) [CFU/mL] | MacConkey agar (CFU/mL), Rifaximin treatment [1, 3] [CFU/mL] | MacConkey agar (CFU/mL), Rifaximin treatment ([1]; Experiment 2, rifaximin dose 0.1 g/mL) [CFU/mL] | MacConkey agar (CFU/mL), Rifaximin treatment ([1]; Experiment 3, rifaximin dose 0.01 g/mL) [CFU/mL] | MacConkey agar (CFU/mL), Rifaximin treatment ([1]; Experiment 4, rifaximin dose 0.1 g/mL) [CFU/mL] | Blood agar (CFU/mL), Rifaximin treatment [2, 3] [CFU/mL] | Blood agar (CFU/mL), Rifaximin treatment ([2]; Experiment 2, rifaximin dose 0.1 g/mL, anaerobically) | Blood agar (CFU/mL), Rifaximin treatment ([2]; Experiment 3, rifaximin dose 0.01 g/mL, anaerobically) [CFU/mL] | Blood agar (CFU/mL), Rifaximin treatment ([2]; Experiment 4, rifaximin dose 0.1 g/mL, anaerobically) [CFU/mL]
1 | O[C@H](CS)[C@H](O)CS (racemic) [DTT, dithiothreitol] | 4800 | 338000 | 20 | 0 | 72000 | too high | 60000 | 1600000 | – | – | – | – | – | – | – | –
2 | CO[C@H]1/C=C/O[C@@]2(C)Oc3c(C)c(O)c4c(O)c(c5c(nc6cc(C)ccn65)c4c3C2=O)NC(=O)/C(C)=C\C=C\[C@H](C)[C@H](O)[C@@H](C)[C@@H](O)[C@@H](C)[C@H](OC(C)=O)[C@@H]1C [Rifaximin, rifaximin] | – | – | – | – | – | – | – | – | 4000 | 343000 | 40 | 0 | 6000 | too high | 800 | 16000
